In ChEMBL document CHEMBL1147866, “Cyclic monophosphate prodrugs of base-modified 2'-C-methyl ribonucleosides as potent inhibitors of hepatitis C virus RNA replication” (Bioorg Med Chem Lett, 2007):
pEC50: −log10 of the molar value.

Legend:
[1] = tested on: Bovine viral diarrhea virus 1; assay: Antiviral activity against Bovine viral diarrhea virus 1; format: functional, organism-based; details: Bovine viral diarrhea virus isolates and strains
[2] = tested on: Hepatitis C virus; assay: Antiviral activity against hepatitis C virus replication; format: functional, organism-based, Hepacivirus hominis
[3] = Metabolic stability in rat plasma after 1 hr; format: ADME, organism-based; details: read-out: Stability
[4] = tested on: Rhesus monkey; assay: Metabolic stability in monkey plasma after 1 hr; format: ADME, Macaca mulatta
[5] = species on record: Homo sapiens; assay: Metabolic stability in human plasma after 1 hr; format: ADME, organism-based

Compound	pEC50 [1]	pEC50 [2]	remaining at 1 h [3] [%]	Stability [4]	Stability [5]
CC(C)OC(=O)OCOP1(=O)O[C@H]2O[C@@H](n3cnc4c(N(C)NS(C)(=O)=O)ncnc43)[C@](C)(O)[C@@H]2O1 (some centres undefined)	6.38	6.33			
CC(C)OC(=O)OCOP1(=O)O[C@H]2O[C@@H](n3cnc4c(N(C)NS(C)(=O)=O)nc(N)nc43)[C@](C)(O)[C@@H]2O1 (some centres undefined)	6.67	6.79			
CN(NS(C)(=O)=O)c1nc(N)nc2c1ncn2[C@@H]1O[C@@H]2OP(=O)(OCOC(=O)C(C)(C)C)O[C@H]2[C@@]1(C)O (some centres undefined)	6.65	7.04			
CN(NS(C)(=O)=O)c1ncnc2c1ncn2[C@@H]1O[C@@H]2OP(=O)(OCOC(=O)C(C)(C)C)O[C@H]2[C@@]1(C)O (some centres undefined)	6.02	6.38			
CCCOCC(C)(C)C(=O)SCCOP1(=O)O[C@H]2O[C@@H](n3cnc4c(N(C)NS(C)(=O)=O)ncnc43)[C@](C)(O)[C@@H]2O1 (some centres undefined)	6.96	7.41			

The remaining lines, values ahead:

pEC50 [1]	pEC50 [2]	remaining at 1 h [3] [%]	Stability [4]	Stability [5]	Compound
7.48	7.66				CN(NS(C)(=O)=O)c1nc(N)nc2c1ncn2[C@@H]1O[C@@H]2OP(=O)(OCCSC(=O)C(C)(C)C)O[C@H]2[C@@]1(C)O (some centres undefined)
6.61	6.84				CN(NS(C)(=O)=O)c1ncnc2c1ncn2[C@@H]1O[C@@H]2OP(=O)(OCCSC(=O)C(C)(C)C)O[C@H]2[C@@]1(C)O (some centres undefined)
7.80	8.10	4	Stable	Stable	CCCOC(C)(C)C(=O)SCCOP1(=O)O[C@H]2O[C@@H](n3cnc4c(N(C)NS(C)(=O)=O)nc(N)nc43)[C@](C)(O)[C@@H]2O1 (some centres undefined)
